Data taken from patent publication US20110230472A1, “RING-FUSED AZOLE DERIVATIVE HAVING PI3K-INHIBITING ACTIVITY” (Shionogi & Co., Ltd., priority 2008, published 2011).

Key:
[1] = test system: Salmonella typhimurium TA98 line, TA100 line; test: FAT test (mutagenicity); set-up: key: When the mutagenicity is negative, the compound is shown as (−); When positive, the compound is shown as (+); settings: TA98 and TA100 lines; non-metabolism-activation and metabolism-activation conditions
Protocol: 20 μL of Salmonella enterica subsp. typhimurium (Salmonella typhimurium TA98 line, TA100 line) cryopreserved was inoculated to 10 mL of liquid nutrient medium (2.5% Oxoid nutrient broth No. 2) and then precultured at 37° C. for 10 hours with shaking. Regarding TA98 line, after 9 mL of a bacterial suspension was centrifuged (2000×g, 10 minutes) to remove the culture solution, the bacteria was suspended in 9 mL of Micro F buffer solution (K2HPO4: 3.5 g/L, KH2PO4: 1 g/L, (NH4)2SO4: 1 g/L, tri-sodium citric acid dihydrate: 0.25 g/L, MgSO4.7H2O: 0.1 g/L), and then added to 110 mL of Exposure media (Micro F buffer solution containing biotin: 8 μg/mL, histidine: 0.2 μg/mL, glucose: 8 mg/mL). Regarding TA 100 line, 120 mL of Exposure media was added to 3.16 mL of the bacterial suspension to prepare a test bacterial suspension. 12 μL of a solution of a test substance in DMSO (diluted eight times in a common ratio of 2 from the maximum dose of 50 mg/mL); 12 μL of DMSO as a negative control; 50 μg/mL 4-nitroquinoline-1-oxide solution in DMSO for TA98 line or 0.25 μg/mL 2-(2-furyl)-3-(5-nitro-2-furyl)acrylamide solution in DMSO as a positive control for TA 100 line in the case of a non-metabolism-activation condition; 12 μL of 40 μg/mL 2-aminoanthracene solution in DMSO for TA98 line or 20 μg/mL of 2-aminoanthracene solution in DMSO for TA100 line in the case of a metabolism-activation condition; were each mixed with 588 μL of the test bacterial suspension (in the case of a metabolism activation condition, a mixed solution of 498 μL of the test bacterial suspension and 90 μL S9 mix) and then cultured at 37° C. at 90 minutes with shaking. 460 μL of the bacterial suspension to which a test substance was exposed was mixed with 230 μL of Indicator media (a Micro F buffer solution containing 8 μg/mL biotin, 0.2 μg/mL histidine, 8 mg/mL glucose, and 37.5 μg/mL bromocresol purple). 50 μL thereof was dispensed to microplate 48 wells/dose and then statically cultured at 37° C. for 3 days. In a well containing bacteria which obtained proliferation potency by mutation of the amino acid (histidine) synthetase gene, the change of pH caused the color change from purple to yellow. Thus, in 48 wells per dose, the number of the bacteria-proliferation wells in which the color changed to yellow was counted, compared with a group of negative controls, and then evaluated. When the mutagenicity is negative, the compound is shown as (−). When positive, the compound is shown as (+).

PI-3 kinase γ = PI-3 kinase γ (Homo sapiens, UniProt P48736); test: PI3Kγ inhibitory activity (Ki value), HTRF; format: biochemical; settings: Ki=IC50/(1+10 μM ATP/Km)
Chain of PI-3 kinase γ (P48736 whole entry): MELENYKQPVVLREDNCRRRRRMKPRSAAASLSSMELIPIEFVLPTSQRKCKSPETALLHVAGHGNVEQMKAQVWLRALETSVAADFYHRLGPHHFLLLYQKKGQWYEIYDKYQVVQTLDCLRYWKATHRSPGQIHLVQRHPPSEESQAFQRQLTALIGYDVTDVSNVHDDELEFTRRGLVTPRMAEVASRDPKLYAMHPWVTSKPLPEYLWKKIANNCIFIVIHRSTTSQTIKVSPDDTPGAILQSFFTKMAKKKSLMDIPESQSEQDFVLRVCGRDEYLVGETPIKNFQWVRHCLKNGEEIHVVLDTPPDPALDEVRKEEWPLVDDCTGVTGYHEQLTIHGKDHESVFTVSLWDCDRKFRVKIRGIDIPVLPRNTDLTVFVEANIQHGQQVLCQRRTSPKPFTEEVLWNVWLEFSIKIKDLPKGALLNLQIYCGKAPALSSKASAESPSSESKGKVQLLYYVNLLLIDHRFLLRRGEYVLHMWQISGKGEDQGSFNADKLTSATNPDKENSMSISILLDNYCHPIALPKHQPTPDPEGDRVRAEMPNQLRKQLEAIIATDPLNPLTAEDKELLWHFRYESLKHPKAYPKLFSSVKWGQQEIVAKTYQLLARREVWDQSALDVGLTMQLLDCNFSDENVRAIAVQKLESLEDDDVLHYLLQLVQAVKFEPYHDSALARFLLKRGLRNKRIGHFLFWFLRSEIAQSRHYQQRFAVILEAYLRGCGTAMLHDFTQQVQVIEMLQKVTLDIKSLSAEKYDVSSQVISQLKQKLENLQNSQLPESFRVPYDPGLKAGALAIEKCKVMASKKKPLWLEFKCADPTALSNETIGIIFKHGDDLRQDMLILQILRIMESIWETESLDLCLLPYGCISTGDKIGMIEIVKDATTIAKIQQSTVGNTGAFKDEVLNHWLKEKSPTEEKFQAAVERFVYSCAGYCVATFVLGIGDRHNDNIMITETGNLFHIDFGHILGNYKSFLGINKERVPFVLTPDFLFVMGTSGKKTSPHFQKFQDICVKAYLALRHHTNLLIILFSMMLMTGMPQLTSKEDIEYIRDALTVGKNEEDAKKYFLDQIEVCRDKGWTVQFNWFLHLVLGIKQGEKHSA
In short: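 IC50 was measured by HTRF over 50-0.05 μmol/L compound and fitted by logistic approximation or two-point linear regression. ATP Km came from Lineweaver-Burk plots of HTRF signal at 0.625-80 μmol/L ATP. Ki = IC50/(1+10 μM/Km).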

[2] = test system: AKT phosphorylation in human monocyte-like cell line THP-1; test: AKT phosphorylation inhibitory activity in MCP-1-stimulated THP-1 cells (ELISA); format: cell-based; settings: 1 μmol/L solution of each compound, MCP-1 stimulation, read-out: AKT phosphorylation inhibition ratio
In short: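 THP-1 cells (6.6×10^6/mL in HBSS) were preincubated 5 min at 37° C with compound at 1 μmol/L (0.2% DMSO), then stimulated with MCP-1 for 30 s. After lysis, phospho-Akt Ser473 was measured by sandwich ELISA (A450); inhibition ratio used no-MCP-1 samples as 0% activity.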

Row | Ki (PI-3 kinase γ) [µM] | SMILES | mutagenicity (FAT test) [1] | inhibition [2] [%]
1 |  | CNC(=O)Nc1cc2n(n1)CCN2c1ccc(S(C)(=O)=O)cc1 [Compound I-89] | (−) | 
2 |  | CNC(=O)Nc1nc2c(s1)CN(c1ccnc(OC)n1)CC2 [Compound I-142] | (−) | 
3 | 0.022 | COc1cc(N2CCc3nc(NC(=O)NCC(=O)O)sc3C2)nc(OC)n1 [Compound I-208] |  | 
4 | 0.029 | COc1cc(N2CCc3nc(NC(=O)NCc4cc(=O)[nH]o4)sc3C2)nc(OC)n1 [Compound I-279] |  | 
5 |  | CN1CCc2cc(N3CCn4nc(NC(=O)c5cccnc5)cc43)ccc2C1=O [Compound I-347] |  | 80.6
6 |  | CN1CCc2cc(N3CCn4nc(NC(=O)c5ccco5)cc43)ccc2C1=O [Compound I-358] | (−) | 95.9
